pKd: −log10 of the molar value. Several values for one entry are separate records, joined by “and”; a condition that tells them apart may be missing. Equal values may be shown once.

The target in one series is T1, HECT domain of E6AP (Homo sapiens, UniProt Q05086).
T1 construct: serial dilution of E6AP HECT domain; inferred from pET28a vector and Ni-NTA purification; made in house; host or cells: E. coli BL21 (DE3) pLysS, plasmid pET28a-E6AP HECT
T1 sequence (Q05086 518-875 limits assumed): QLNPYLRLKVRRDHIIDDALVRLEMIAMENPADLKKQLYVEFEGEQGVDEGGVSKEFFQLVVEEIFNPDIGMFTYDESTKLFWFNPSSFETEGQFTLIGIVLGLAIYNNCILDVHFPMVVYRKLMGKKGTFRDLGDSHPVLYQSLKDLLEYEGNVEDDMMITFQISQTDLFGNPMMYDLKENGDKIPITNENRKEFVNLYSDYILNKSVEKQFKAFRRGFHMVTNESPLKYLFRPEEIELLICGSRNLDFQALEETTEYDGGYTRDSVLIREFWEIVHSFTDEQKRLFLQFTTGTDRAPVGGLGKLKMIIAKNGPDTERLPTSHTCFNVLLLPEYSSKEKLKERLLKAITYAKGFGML
The series is described as follows: Fluorescence polarization binding affinity of FITC-labeled peptides with the E6AP HECT domain. The following applies: Kd of the peptide-HECT complex. The method, then: The library was screened based on the binding between the bead-anchored peptides with the HECT domain of E6AP with an N-terminal Flag tag that was recognized by an anti-Flag antibody labeled with AlexaFluor 488 that would emit green fluorescence. […] The peptide ligands from the screen were named P1-8 and they were resynthesized to measure their individual binding affinities with the HECT domain by fluorescence polarization (FP).
The binding affinity (Kd) of the peptides were measured by fluorescence polarization. Briefly, a constant amount of the 100 nM FITC-labeled cyclic peptide was incubated with a serial dilution of E6AP HECT domain. The Kd values was calculated using the following equation, in which the Lst and x refer to the concentration of peptide and protein, respectively.

A further series relates to pronase. Kind of series: Enzymatic stability study with pronase (HPLC, MS). Type of series: in vitro ADME. The following applies: 0.1 mg/mL pronase, 37° C., 24 h. As for the experimental part: (§1) A distinctive characteristic of γ-AA peptides compared with canonical peptides is their remarkable resistance to protease. To assay the stability of P6 in presence of protease, P6 was incubated with 0.1 mg/mL pronase at 37° C. for 24 h.
0.01 mg/mL P6 was incubated with 0.1 mg/mL pronase in 100 mM ammonium bicarbonate buffer (pH 7.8) at 37° C. for 24 h. The reaction mixture was concentrated in a speed vacuum to remove the water and ammonium bicarbonate. The remains were dissolved in 100 μL H2O/CH3CN and analyzed by a Waters analytical HPLC system with a 1 mL/min flow rate and 5-100% linear gradient of solvent B (0.1% TFA in acetonitrile) in A (0.1% TFA in water) over the duration of 50 min. The UV detector was set to 215 nm.

Series [1] is described as follows: Serum stability assay (25% serum, HPLC). It counts as in vitro ADME, human. The following applies: 25% serum (v/v), 37° C., 24 h. As for the experimental part: as §1
The serum stabilities of peptides were determined in 25% (v/v) aqueous pooled serum from human male AB plasma (Sigma-Aldrich, Milan, Italy). 1 mg P6 was dissolved in 50 μL CH3CN/H2O (70:30, v/v) and then diluted in serum and incubated at 37° C. for 24 h. Then, 100 μL of solution was added to 100 μL of CH3CN on ice for 15 min and was centrifuged at 4° C. for 10 min. The supernatant was then analyzed by a Waters analytical HPLC system with a 1 mL/min flow rate and 5-100% linear gradient of solvent B (0.1% TFA in acetonitrile) in A (0.1% TFA in water) over the duration of 50 min. The UV detector was set to 215 nm.

A word on the pKd: it is the negative decadic logarithm of the Kd, by convention in mol/L. A high value points to a small Kd. Consider `CC(C)C[C@H]1CN(CC(N)=O)C(=O)CCSCc2ccc(cc2)C(=O)N[C@@H](C)CN(C(=O)Cc2ccc3ccccc3c2)CC(=O)N[C@@H](CC(C)C)CN(C(=O)CCc2ccccc2)CC(=O)N[C@@H](Cc2ccccc2)CN(C(=O)Cc2ccc3c(c2)OCO3)CC(=O)N1` [P3], for which the pKd on HECT domain of E6AP was 6.66 to 7.10.
Same read-out and setting: as for `CC(C)C[C@H]1CN(CC(N)=O)C(=O)CCSCc2ccc(cc2)C(=O)N[C@@H](Cc2ccccc2)CN(C(=O)Cc2ccc3ccccc3c2)CC(=O)N[C@@H](CC(C)C)CN(C(=O)CCC2CCCCC2)CC(=O)N[C@@H](Cc2ccccc2)CN(C(=O)Cc2ccc3c(c2)OCO3)CC(=O)N1` [P4], the figure is 6.66 to 7.10; as for `COc1cc(CC(=O)N2CC(=O)N[C@@H](Cc3ccccc3)CN(C(=O)CC3CC3)CC(=O)N[C@@H](CC(C)C)CN(CC(N)=O)C(=O)CCSCc3ccc(cc3)C(=O)N[C@@H](CCC(=O)O)CN(C(=O)Cc3ccc4c(c3)OCO4)CC(=O)N[C@@H](CC(C)C)C2)cc(OC)c1` [P5], 6.66 to 7.10.
On to `COc1cc(CC(=O)N2CC(=O)N[C@@H](Cc3ccccc3)CN(C(=O)CC3CC3)CC(=O)N[C@@H](CC(C)C)CN(CC(N)=O)C(=O)CCSCc3ccc(cc3)C(=O)N[C@@H](CCCCN)CN(C(=O)Cc3ccc4ccccc4c3)CC(=O)N[C@@H](CC(C)C)C2)cc(OC)c1` [P6], for which the pKd at HECT domain of E6AP was 6.66 to 7.10 and 6.66. The “stability in presence of protease” value in the series with pronase was “resistant to protease cleavage”. For the same compound, the “stability in human serum” value in series [1] is on record as “stability was confirmed”.
Regarding `COc1cc(CC(=O)N2CC(=O)N[C@@H](C)CN(C(=O)Cc3cc(OC)cc(OC)c3)CC(=O)N[C@@H](CC(C)C)CN(CC(N)=O)C(=O)CCSCc3ccc(cc3)C(=O)N[C@@H](Cc3ccccc3)CN(C(=O)Cc3ccc4c(c3)OCO4)CC(=O)N[C@@H](Cc3ccccc3)C2)cc(OC)c1` [P7], at HECT domain of E6AP, the pKd was 6.66 to 7.10.
Still for that read-out and setting: as for `C[C@H]1CN(C(=O)Cc2ccc3c(c2)OCO3)CC(=O)N[C@@H](Cc2ccccc2)CN(C(=O)Cc2ccc3ccccc3c2)CC(=O)N[C@@H](CCC(=O)O)CN(C(=O)CC2CC2)CC(=O)N[C@@H](Cc2ccccc2)CN(CC(N)=O)C(=O)CCSCc2ccc(cc2)C(=O)N1` [P8], the figure is 6.66 to 7.10.
